Assay results reported in US12662465B2, “EGFR inhibitors” (Blueprint Medicines Corporation, priority 2021, dated 2026).
Like-named read-outs stand apart in the source and are kept apart here.

Tests used:
EGFR L858R = biological target: T1, EGFR L858R (Homo sapiens, UniProt P00533, L858R); assay: Biochemical EGFR inhibition assay (Caliper mobility shift), EGFR L858R; conditions: read-out: Enz EGFR_L858R IC50
T1 construct: purchased SignalChem E10-122BG

[1] = biological target: intracellular phosphorylation of EGFR (Tyr1068) in PC-9 cells (Ex19Del) (Homo sapiens, UniProt P00533, DEL746-750); assay: PC-9 pEGFR AlphaLISA assay; type: cell-based; conditions: 4 hours compound incubation, read-out: Ext pEGFR_PC-9 Ex19Del IC50
Sequence of intracellular phosphorylation of EGFR (Tyr1068) in PC-9 cells (Ex19Del) (P00533 with tags, fused parts or gaps DEL746-750): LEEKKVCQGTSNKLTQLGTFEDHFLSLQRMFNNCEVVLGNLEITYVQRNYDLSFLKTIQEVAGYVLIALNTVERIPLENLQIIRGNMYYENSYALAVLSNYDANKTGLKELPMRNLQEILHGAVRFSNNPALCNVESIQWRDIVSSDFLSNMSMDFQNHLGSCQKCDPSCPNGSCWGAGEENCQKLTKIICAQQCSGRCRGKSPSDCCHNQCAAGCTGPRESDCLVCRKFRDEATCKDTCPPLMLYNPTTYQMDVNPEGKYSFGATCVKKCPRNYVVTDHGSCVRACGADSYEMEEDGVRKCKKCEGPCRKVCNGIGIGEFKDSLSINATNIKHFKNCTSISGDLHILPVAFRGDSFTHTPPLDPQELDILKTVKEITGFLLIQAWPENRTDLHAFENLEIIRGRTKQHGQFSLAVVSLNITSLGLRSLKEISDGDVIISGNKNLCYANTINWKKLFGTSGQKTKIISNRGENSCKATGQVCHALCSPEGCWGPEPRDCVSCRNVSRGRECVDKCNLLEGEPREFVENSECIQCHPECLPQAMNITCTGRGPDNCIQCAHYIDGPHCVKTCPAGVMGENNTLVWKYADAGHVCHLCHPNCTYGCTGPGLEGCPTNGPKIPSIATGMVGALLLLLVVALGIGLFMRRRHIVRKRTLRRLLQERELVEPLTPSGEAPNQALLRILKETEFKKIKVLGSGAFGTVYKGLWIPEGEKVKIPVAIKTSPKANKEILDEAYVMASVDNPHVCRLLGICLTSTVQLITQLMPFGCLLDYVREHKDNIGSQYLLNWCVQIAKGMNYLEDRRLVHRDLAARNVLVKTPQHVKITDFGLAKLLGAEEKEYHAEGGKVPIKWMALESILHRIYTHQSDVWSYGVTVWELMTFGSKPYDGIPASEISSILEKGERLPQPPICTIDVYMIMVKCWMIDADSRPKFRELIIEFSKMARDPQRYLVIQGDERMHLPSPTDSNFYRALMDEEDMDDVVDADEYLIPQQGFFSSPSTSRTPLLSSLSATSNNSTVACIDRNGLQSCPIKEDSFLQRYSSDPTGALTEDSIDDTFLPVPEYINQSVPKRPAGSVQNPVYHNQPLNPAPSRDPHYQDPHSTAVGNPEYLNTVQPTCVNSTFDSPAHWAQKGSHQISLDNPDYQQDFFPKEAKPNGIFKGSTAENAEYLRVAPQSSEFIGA

EGFR (d746-750) = biological target: T2, EGFR (d746-750) (Homo sapiens, UniProt P00533, DEL746-750); assay: Biochemical EGFR inhibition assay (Caliper mobility shift), EGFR (d746-750); conditions: read-out: Enz EGFR_Exon19-del746-750 IC50
T2 construct: purchased SignalChem E10-122JG
T2 sequence (P00533 with tags, fused parts or gaps DEL746-750 limits assumed): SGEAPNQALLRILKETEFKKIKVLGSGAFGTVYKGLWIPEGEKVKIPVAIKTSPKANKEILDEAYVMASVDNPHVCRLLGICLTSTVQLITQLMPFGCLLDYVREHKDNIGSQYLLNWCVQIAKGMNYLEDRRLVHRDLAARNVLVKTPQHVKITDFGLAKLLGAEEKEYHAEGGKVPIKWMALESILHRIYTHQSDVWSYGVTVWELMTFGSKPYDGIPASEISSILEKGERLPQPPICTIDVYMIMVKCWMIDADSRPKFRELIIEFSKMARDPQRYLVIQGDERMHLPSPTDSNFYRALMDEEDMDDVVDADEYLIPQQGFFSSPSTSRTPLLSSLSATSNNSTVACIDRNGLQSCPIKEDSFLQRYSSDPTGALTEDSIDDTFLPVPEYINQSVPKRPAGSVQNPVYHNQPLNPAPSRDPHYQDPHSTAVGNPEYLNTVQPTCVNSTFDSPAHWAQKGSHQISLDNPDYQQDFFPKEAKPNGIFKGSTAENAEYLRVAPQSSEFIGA

[2] = 1.0 mM ATP or ATP Km, room temperature (25° C.)

T1 sequence (P00533 25-1210 L858R): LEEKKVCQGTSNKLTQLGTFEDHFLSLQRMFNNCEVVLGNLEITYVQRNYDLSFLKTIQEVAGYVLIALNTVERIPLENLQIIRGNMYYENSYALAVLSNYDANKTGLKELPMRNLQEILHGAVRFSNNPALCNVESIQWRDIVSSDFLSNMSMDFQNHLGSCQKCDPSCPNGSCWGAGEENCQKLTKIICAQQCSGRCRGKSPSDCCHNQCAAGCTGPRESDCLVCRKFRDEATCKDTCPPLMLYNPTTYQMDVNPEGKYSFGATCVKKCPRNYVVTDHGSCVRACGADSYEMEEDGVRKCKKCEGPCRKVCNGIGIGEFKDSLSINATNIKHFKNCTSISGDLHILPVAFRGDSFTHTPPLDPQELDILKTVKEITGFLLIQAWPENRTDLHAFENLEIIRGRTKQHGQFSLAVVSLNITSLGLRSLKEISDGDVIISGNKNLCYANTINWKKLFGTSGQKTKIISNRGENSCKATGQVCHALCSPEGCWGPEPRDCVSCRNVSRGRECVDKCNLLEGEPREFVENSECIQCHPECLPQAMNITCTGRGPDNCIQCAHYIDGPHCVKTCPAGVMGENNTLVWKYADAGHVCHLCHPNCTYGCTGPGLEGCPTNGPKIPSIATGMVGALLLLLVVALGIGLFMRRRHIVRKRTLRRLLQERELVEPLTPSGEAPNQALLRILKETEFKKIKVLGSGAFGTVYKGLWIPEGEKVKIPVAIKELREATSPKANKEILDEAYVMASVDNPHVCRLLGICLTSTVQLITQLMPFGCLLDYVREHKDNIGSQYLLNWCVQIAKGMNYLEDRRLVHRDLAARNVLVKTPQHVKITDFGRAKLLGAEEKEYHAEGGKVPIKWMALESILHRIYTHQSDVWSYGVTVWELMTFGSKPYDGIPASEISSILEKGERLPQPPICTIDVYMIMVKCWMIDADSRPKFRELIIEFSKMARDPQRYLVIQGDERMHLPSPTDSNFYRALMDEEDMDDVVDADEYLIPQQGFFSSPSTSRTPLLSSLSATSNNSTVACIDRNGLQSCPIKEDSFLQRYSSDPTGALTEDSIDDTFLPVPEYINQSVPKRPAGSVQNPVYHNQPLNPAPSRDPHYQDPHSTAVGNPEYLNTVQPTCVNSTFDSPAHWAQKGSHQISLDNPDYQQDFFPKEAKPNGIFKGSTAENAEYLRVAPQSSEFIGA

SMILES | IC50 (EGFR L858R) [nM] | IC50 [1] [nM] | IC50 (EGFR (d746-750)) [nM] | IC50 (EGFR L858R; [2]) [nM] | IC50 (EGFR (d746-750); [2]) [nM]
CN1CCC[C@@H](Oc2cc(-c3cnn(C)c3)cc3ncnc(Nc4ccc5ncccc5c4F)c23)C1 [Example 36, (R)—N-(5-fluoroquinolin-6-yl)-7-(1-methyl-1H-pyrazol-4-yl)-5-((1-methylpiperidin-3-yl)oxy)quinazolin-4-amine] | 10.1 to 50 | 10.1 to 50 | < 10 | – | –
C[C@H](CN(C)C)Oc1cc(-c2cnn(C)c2)cc2ncnc(Nc3ccc4ncccc4c3)c12 (single isomer, unassigned) [Example 43, (R)-5-((1-(dimethylamino)propan-2-yl)oxy)-7-(1-methyl-1H-pyrazol-4-yl)-N-(quinolin-6-yl)quinazolin-4-amine or (S)-5-((1-(dimethylamino)propan-2-yl)oxy)-7-(1-methyl-1H-pyrazol-4-yl)-N-(quinolin-6-yl)quinazolin-4-amine] | – | > 50.1 | – | > 50.1 | 10.1 to 50
C[C@H](CN(C)C)Oc1cc(-c2cnn(C)c2)cc2ncnc(Nc3ccc4ncccc4c3F)c12 [Example 6, (R)-5-((1-(dimethylamino)propan-2-yl)oxy)-N-(5-fluoroquinolin-6-yl)-7-(1-methyl-1H-pyrazol-4-yl)quinazolin-4-amine] | < 10 | ≤ 10 | < 10 | – | –
C[C@@H](Oc1cc(-c2cnn(C)c2)cc2ncnc(Nc3cc(F)c4ncccc4c3F)c12)C1COC1 [Example 9, (R)—N-(5,8-difluoroquinolin-6-yl)-7-(1-methyl-1H-pyrazol-4-yl)-5-(1-(oxetan-3-yl)ethoxy)quinazolin-4-amine] | < 10 | ≤ 10 | < 10 | – | –
CN(C)C[C@@H](Oc1cc(-c2cnn(C)c2)cc2ncnc(Nc3ccc4ncccc4c3F)c12)C(F)F (single isomer, unassigned) [Example 38, (R)-5-((3-(dimethylamino)-1,1-difluoropropan-2-yl)oxy)-N-(5-fluoroquinolin-6-yl)-7-(1-methyl-1H-pyrazol-4-yl)quinazolin-4-amine or (S)-5-((3-(dimethylamino)-1,1-difluoropropan-2-yl)oxy)-N-(5-fluoroquinolin-6-yl)-7-(1-methyl-1H-pyrazol-4-yl)quinazolin-4-amine] | – | 10.1 to 50 | – | 10.1 to 50 | < 10
C[C@H](Oc1cc(-c2cnn(C)c2)cc2ncnc(Nc3ccc4ncccc4c3F)c12)[C@@H]1CCCN1C (single isomer, unassigned) [Example 148] | – | > 50.1 | – | 10.1 to 50 | 10.1 to 50
C[C@H](CN(C)C)Oc1cc(-c2cnn(C)c2)cc2ncnc(Nc3ccc4nnccc4c3)c12 [Example 11, (R)—N-(5-((1-(dimethylamino)propan-2-yl)oxy)-7-(1-methyl-1H-pyrazol-4-yl)quinazolin-4-yl)cinnolin-6-amine] | > 50.1 | > 50.1 | 10.1 to 50 | – | –
C[C@H](CN(C)C)Oc1cc(-c2cnn(C)c2)cc2ncnc(Nc3ccc4ncccc4c3F)c12 (single isomer, unassigned) [Example 5, (R)-5-((1-(dimethylamino)propan-2-yl)oxy)-N-(5-fluoroquinolin-6-yl)-7-(1-methyl-1H-pyrazol-4-yl)quinazolin-4-amine or (S)-5-((1-(dimethylamino)propan-2-yl)oxy)-N-(5-fluoroquinolin-6-yl)-7-(1-methyl-1H-pyrazol-4-yl)quinazolin-4-amine] | – | ≤ 10 | – | < 10 | < 10
C[C@H](CN(C)C)Oc1cc(N2CC[C@@H](C(C)(C)O)C2)cc2ncnc(Nc3ccc4ncccc4c3F)c12 [Example 72, 2—((R)-1-(5-(((R)-1-(dimethylamino)propan-2-yl)oxy)-4-((5-fluoroquinolin-6-yl)amino)quinazolin-7-yl)pyrrolidin-3-yl)propan-2-ol] | 10.1 to 50 | 10.1 to 50 | < 10 | – | –
C[C@H](CN(C)C)Oc1cc(-c2cnn(C)c2)cc2ncnc(Nc3ccc4ncc(F)cc4c3)c12 [Example 7, (R)-5-((1-(dimethylamino)propan-2-yl)oxy)-N-(3-fluoroquinolin-6-yl)-7-(1-methyl-1H-pyrazol-4-yl)quinazolin-4-amine] | < 10 | ≤ 10 | < 10 | – | –

More lines, now with the values ahead:

IC50 (EGFR L858R) [nM] | IC50 [1] [nM] | IC50 (EGFR (d746-750)) [nM] | IC50 (EGFR L858R; [2]) [nM] | IC50 (EGFR (d746-750); [2]) [nM] | SMILES
> 50.1 | > 50.1 | > 50.1 | – | – | C[C@H](CN(C)C)Oc1cc(N2C3COCC2C3)cc2ncnc(Nc3ccc4ncccc4c3F)c12 [Example 89, 7-(3-oxa-6-azabicyclo[3.1.1]heptan-6-yl)-5-(((R)-1-(dimethylamino)propan-2-yl)oxy)-N-(5-fluoroquinolin-6-yl)quinazolin-4-amine]
< 10 | ≤ 10 | < 10 | – | – | CC(CO)n1cc(-c2cc(O[C@H](C)C3COC3)c3c(Nc4ccc5ncccc5c4F)ncnc3c2)cn1 (mixture of isomers) [Example 119, (R)-2-(4-(4-((5-fluoroquinolin-6-yl)amino)-5-((R)-1-(oxetan-3-yl)ethoxy)quinazolin-7-yl)-1H-pyrazol-1-yl)propan-1-ol and (S)-2-(4-(4-((5-fluoroquinolin-6-yl)amino)-5-((R)-1-(oxetan-3-yl)ethoxy)quinazolin-7-yl)-1H-pyrazol-1-yl)propan-1-ol]
10.1 to 50 | > 50.1 | 10.1 to 50 | – | – | C[C@H](CN(C)C)Oc1cc(-c2cnn(C)c2)cc2nc[n+]([O-])c(Nc3ccc4ncccc4c3F)c12 (single isomer, unassigned) [Example 128]
10.1 to 50 | 10.1 to 50 | < 10 | – | – | C[C@H](CN(C)C)Oc1nc(N2CC[C@H](C(C)(C)O)C2)cc2ncnc(Nc3ccc4ncccc4c3F)c12 [Example 75, 2—((S)-1-(5-(((R)-1-(dimethylamino)propan-2-yl)oxy)-4-((5-fluoroquinolin-6-yl)amino)pyrido[4,3-d]pyrimidin-7-yl)pyrrolidin-3-yl)propan-2-ol]
10.1 to 50 | ≤ 10 | < 10 | – | – | [2H]c1c(-c2cc(O[C@H](C)CN(C)C)c3c(Nc4ccc5ncccc5c4F)ncnc3c2)cnn1C [Example 159, (R)-5-((1-(dimethylamino)propan-2-yl)oxy)-N-(5-fluoroquinolin-6-yl)-7-(1-methyl-1H-pyrazol-4-yl-5-d)quinazolin-4-amine]
– | 10.1 to 50 | – | 10.1 to 50 | < 10 | C[C@H](CN(C)C)Oc1cc(N2CCO[C@@H](C(F)F)C2)cc2ncnc(Nc3ccc4ncccc4c3F)c12 (single isomer, unassigned) [Example 99b, 7-((R)-2-(difluoromethyl)morpholino)-5-(((R)-1-(dimethylamino)propan-2-yl)oxy)-N-(5-fluoroquinolin-6-yl)quinazolin-4-amine or 7-((S)-2-(difluoromethyl)morpholino)-5-(((R)-1-(dimethylamino)propan-2-yl)oxy)-N-(5-fluoroquinolin-6-yl)]
– | 10.1 to 50 | – | < 10 | < 10 | C[C@@H](Oc1cc(-c2cnn(C)c2)cc2ncnc(Nc3ccc4ncccc4c3F)c12)[C@@H]1COCCN1 (single isomer, unassigned) [Example 124]
< 10 | ≤ 10 | < 10 | – | – | C[C@H](CN(C)C)Oc1cc(N2CC3(CCS3(=O)=O)C2)cc2ncnc(Nc3ccc4ncccc4c3F)c12 [Example 97, (R)-6-(5-((1-(dimethylamino)propan-2-yl)oxy)-4-((5-fluoroquinolin-6-yl)amino)quinazolin-7-yl)-1-thia-6-azaspiro[3.3]heptane 1,1-dioxide]
< 10 | ≤ 10 | < 10 | – | – | C[C@H](CN(C)C)Oc1cc(N2CC[C@H](C(C)(C)O)C2)cc2ncnc(Nc3ccc4ncccc4c3F)c12 [Example 73, 2—((S)-1-(5-(((R)-1-(dimethylamino)propan-2-yl)oxy)-4-((5-fluoroquinolin-6-yl)amino)quinazolin-7-yl)pyrrolidin-3-yl)propan-2-ol]
10.1 to 50 | ≤ 10 | < 10 | – | – | C[C@H](CN(C)C)Oc1cc(N2CCCC2=O)cc2ncnc(Nc3ccc4ncccc4c3F)c12 [Example 96, (R)-1-(5-((1-(dimethylamino)propan-2-yl)oxy)-4-((5-fluoroquinolin-6-yl)amino)quinazolin-7-yl)pyrrolidin-2-one]
< 10 | ≤ 10 | < 10 | – | – | C[C@H](CN(C)C)Oc1cc(-n2cc(F)cn2)cc2ncnc(Nc3ccc4ncccc4c3F)c12 [Example 82, (R)-5-((1-(dimethylamino)propan-2-yl)oxy)-7-(4-fluoro-1H-pyrazol-1-yl)-N-(5-fluoroquinolin-6-yl)quinazolin-4-amine]
< 10 | ≤ 10 | < 10 | – | – | COC1CCN(c2cc(O[C@H](C)C3COC3)c3c(Nc4ccc5ncccc5c4F)ncnc3c2)C1 (mixture of isomers) [Example 84, N-(5-fluoroquinolin-6-yl)-7-((R)-3-methoxypyrrolidin-1-yl)-5-((R)-1-(oxetan-3-yl)ethoxy)quinazolin-4-amine and N-(5-fluoroquinolin-6-yl)-7-((S)-3-methoxypyrrolidin-1-yl)-5-((R)-1-(oxetan-3-yl)ethoxy)quinazolin-4-amine]
10.1 to 50 | 10.1 to 50 | < 10 | – | – | C[C@H](CN(C)C)Oc1cc(-c2cnn(C)c2)cc2ncnc(Nc3ccc4cccnc4c3F)c12 [Example 108, (R)-5-((1-(dimethylamino)propan-2-yl)oxy)-N-(8-fluoroquinolin-7-yl)-7-(1-methyl-1H-pyrazol-4-yl)quinazolin-4-amine]
